The values that follow come from patent publication US4788136A, “Diagnostic immunoassay by solid phase separation for digoxin” (priority 1987, dated 1988).

Assay [1] concerns anti-digoxin antibodies. The experiment in a line: TDx Abbott Digoxin II assay, antigenicity (cross-reactivity) of cardiac glycoside analogs. Type of assay: binding. Particulars: TDx analyzer, aqueous solutions in TDx dilution buffer, observed assay concentration divided by actual analog concentration times 100. As for the experimental part:
(§1) The antigencity of cardiac glycoside analogs was first determined using the TDx@ analyzer and the Abbott Digoxin II assay commercially available from Abbott Laboratories, Abbott Park, Il 60064. Analogs were evaluated as aqueous solutions in TDx dilution buffer. Several analogs were also subsequently evaluated using the new digoxin assay described herein (see generally Example IV) using a ouabain triacetate solid phase prepared in accordance with Example IIB. Analogs evaluated were: [drawing 3] wherein R1 =R2 =R3 =Ac, X=O, Y1, Z1 and Y2, Z2 =a bond connecting the two carbon atoms to which they are attached (A); R1 =R2 =R3 =Ac, X=O, Y1 =OH, Z1 =H, Y2 and Z2 =a bond connecting the two carbon atoms to which they are attached (B); R1 =R2 =R3 =Ac, X=O, Y1 =Y2 =OH, Z1 =Z2 =H (C); and R1 =R2 =R3 =H, X=N, Y1 =Y2 =OH, Z1 =Z2 =H (D). Cross-reactivity was defined as the observed assay concentration divided by the actual analog concentration times 100.

The test system of assay [2] is β-galactosidase-labeled F(ab')2 (anti-digoxin). Nature of the assay: New digoxin assay (ouabain triacetate solid phase), cross-reactivity of analogs. Particulars: new digoxin assay using ouabain triacetate solid phase; observed assay concentration divided by actual analog concentration times 100. The format is binding, Rabbit. On the procedure: as §1
Assay [3] concerns anti-digoxin antibodies. The note with it: known compounds for immobilization (background); cited from earlier work.
For assay [4], the system named is β-galactosidase-labeled F(ab')2. The experiment in a line: Non-competitive assay for digoxin in serum with immobilized ouabain triacetate solid phase (standard curve).
Experimental: The general assay format consists of preincubation of excess β-galactosidase-labeled F(ab')2 (Example II A) with sample such that sample is quantitatively and rapidly bound to form an analyte-β-galactosidase-labeled F(ab')2 conjugate. An aliquot of this mixture is transferred to a vessel containing a ouabain triacetate-albumin-trisacryl solid phase prepared in accordance with procedure of Example II B and having a characteristic density to be easily suspended in solution yet sufficiently dense to rapidly sediment by gravity. The solid phase material rapidly captures the excess unconjugated β-galactosidase-labeled F(ab')2 and sediments. Following the capture reaction and sedimentation an aliguot containing analyte-β-galactosidase-labeled F(ab')2 is transfered to a cuvette for quantitation using a fluorogenic substrate.
Serum solutions containing 0, 0.5, 1.0, 2.0, 3.0 and 5.0 nanograms per milliliter of digoxin were each tested following the same assay protocol described below. A control was also run with zero digoxin and no solid phase material. Fifty microliters of serum sample was mixed with 25 microliters of the β-galactosidase-labeled F(ab')2 (Example II A) and 325 microliters of TDx dilution buffer. The reaction mixture was incubated at 34-35 degrees Celsius for 6 minutes and then a 60 microliter aliquot and 55 microliters of TDx dilution buffer was added to 10 mg of solid phase material (Example II B). The mixture was incubated for 10 minutes with mixing. 400 ul of TDx dilution buffer was then added to the mixture.
The mixture was allowed to rest briefly whereupon it separated into a liquid and solid phase. The β-galactosidase activity of the supernatant was measured by quantitating the production of fluorescein. The measurement was made using 10 micromolar di-(β-D-galactosyl)-fluorescein as substrate in TDx dilution buffer containing 1 mM MgCl2.

`CC(=O)OCC12C(OC(C)=O)CC(OC3OC(C)C(O)C(O)C3O)CC1(O)CCC1C2C(OC(C)=O)CC2(C)C(C3=CC(=O)OC3)CCC12O` (centres unmarked) [Ouabain Triacetate (C)]: the “CROSS-REACTIVITY (%) DIGOXIN II” value with anti-digoxin antibodies [1] was 3.7 × 10^-4%. In addition, the “CROSS-REACTIVITY (%) NEW ASSAY” value in assay [2] is 2.2 × 10^-4%.

For `C[C@H]1O[C@@H](O[C@H]2[C@@H](O)C[C@H](O[C@H]3[C@@H](O)C[C@H](O[C@H]4CC[C@@]5(C)[C@H](CC[C@@H]6[C@@H]5C[C@@H](O)[C@]5(C)[C@@H](C7=CC(=O)OC7)CC[C@]65O)C4)O[C@@H]3C)O[C@@H]2C)C[C@H](O)[C@@H]1O` [Digoxin], the “CROSS-REACTIVITY (%) DIGOXIN II” value in the assay on anti-digoxin antibodies [1] is 100%. Also, the “CROSS-REACTIVITY (%) NEW ASSAY” value in assay [2] is 100%. For the same compound, the “affinity for labeled anti digoxin antibody, in words” value with anti-digoxin antibodies [3] is “relatively high affinity”. The “Fluorescence Measured Rate” value was found to be 160 in assay [4] (digoxin 0.5 ng/mL in serum); 220 in assay [4] (digoxin 1.0 ng/mL in serum); 448 in assay [4] (digoxin 2.0 ng/mL in serum); 745 in assay [4] (digoxin 3.0 ng/mL in serum); 1231 in assay [4] (digoxin 5.0 ng/mL in serum).

Turning to `CC(=O)OCC12C(OC(C)=O)CC(OC3OC(C)C(O)C(O)C3O)CC1(O)CCC1C3=CCC(C4=CC(=O)OC4)C3(C)CC(OC(C)=O)C12` (centres unmarked) [Ouabain Triacetate (B)], the “CROSS-REACTIVITY (%) DIGOXIN II” value in the assay with anti-digoxin antibodies [1] is on record as 1.5 × 10^-3%.

Consider `C[C@@H]1O[C@@H](O[C@H]2C[C@@H](O)[C@]3(CO)[C@H]4[C@H](O)C[C@]5(C)[C@@H](C6=CC(=O)OC6)CC[C@]5(O)[C@@H]4CC[C@]3(O)C2)[C@H](O)[C@H](O)[C@H]1O` [Ouabain], for which, in the assay with anti-digoxin antibodies [1], the “CROSS-REACTIVITY (%) DIGOXIN II” value is recorded as 2.0 × 10^-2%. Further, the “CROSS-REACTIVITY (%) NEW ASSAY” value in assay [2] was 1.8 × 10^-3%. Also, the “affinity for labeled anti digoxin antibody, in words” value with anti-digoxin antibodies [3] is given as “relatively high affinity”.

Consider `CC1OC(OC2C(O)CC(OC3C(O)CC(OC4CCC5(C)C(CCC6C5CC(O)C5(C)C(C7=CC(=O)NC7)CCC65O)C4)OC3C)OC2C)CC(O)C1O` (centres unmarked) [Digoxin Lactam], for which, in the assay with anti-digoxin antibodies [1], the “CROSS-REACTIVITY (%) DIGOXIN II” value amounted to 0.41%.

In the case of `CC1OC(OC2CC(O)C3(CO)C4C(O)CC5(C)C(C6=CC(=O)NC6)CCC5(O)C4CCC3(O)C2)C(O)C(O)C1O` (centres unmarked) [Ouabain Lactam (D)], the “CROSS-REACTIVITY (%) DIGOXIN II” value in the assay with anti-digoxin antibodies [1] is recorded as 9.1 × 10^-4%.

With `CC(=O)OCC12C(=CCC3C4=CCC(C5=CC(=O)OC5)C4(C)CC(OC(C)=O)C31)CC(OC1OC(C)C(O)C(O)C1O)CC2OC(C)=O` (centres unmarked) [Ouabain Triacetate (A)], the “CROSS-REACTIVITY (%) DIGOXIN II” value in the assay on anti-digoxin antibodies [1] is 1.6 × 10^-3%.
